Experiment: Stability in an aqueous vehicle
Type: physicochemical
Conditions: no test data printed

Substance: 4(3)-(4-hydroxy-4-methylpentyl)-3-cyclohexene-1-carbonitrile [Example 1]
- Stability in an aqueous vehicle: stable in an aqueous vehicle

Reference: patent publication US8980819B2, “4(3)-(4-hydroxy-4-methylpentyl)-3-cyclohexene-1-carbonitrile” (Kao Corporation, priority 2013, dated 2015)
